Consider 5 compounds from patent US20240327411A1, “SIRT6 ACTIVATORS” (The Board of Regents of The University of Texas System, priority 2022, published 2024).

Entries after “also recorded” stand apart in the source; their conditions may differ.

The subject of one series is SARS-CoV-2. The series is described as follows: microbe, parasite or virus in culture. It is filed as cell-based.
For series [1], the system named is H1299 cells. The experiment in a line: Colony formation assay in H1299 cells. Type of series: cell-based. The note with it: 30 μM, one week.
Series [2] relates to PLC/PRF/5 cells. The experiment in a line: Acetylated H3K9 / total H3 in PLC/PRF/5 cells, Western blot. It is filed as cell-based. The note with it: 30 μM, 24 hours. (In general: Immunoblotting shows a protein as a band on a membrane.)
The next series deals with BV2 cells. The series is described as follows: LPS-induced inflammatory gene mRNA expression in BV2 cells, q-PCR. It is filed as cell-based, murine. The note with it: for LPS-induced expression of IL-1β, IL-6, MCP-1, and TNFα: 30 μM pretreatment 30 minutes; for LPS-induced proinflammatory cytokine/chemokine production: summary statement.
The target in series [3] is T1, Sirt6 (Homo sapiens, UniProt Q8N6T7). The experiment in a line: Sirt6-dependent peptide deacetylation, FLUOR DE LYS / Sirt6 fluorometric activity kit. It is filed as biochemical. The note with it: mean ± SD, at least two independent experiments; for Activation Fold 30 μM: compound at 30 μM; for Activation Fold 100 μM: compound at 100 μM.
Method: Sirt6/Sirt1/Sirt2/Sirt3 activity was tested by Activity Assay Kits (Abcam) according to the manufacturer's instruction with minor modification. […] All experiments were conducted at room temperature.
Another series concerns the target T2, Sirt1 (Homo sapiens, UniProt Q96EB6).
T2 sequence (Q96EB6 1-747): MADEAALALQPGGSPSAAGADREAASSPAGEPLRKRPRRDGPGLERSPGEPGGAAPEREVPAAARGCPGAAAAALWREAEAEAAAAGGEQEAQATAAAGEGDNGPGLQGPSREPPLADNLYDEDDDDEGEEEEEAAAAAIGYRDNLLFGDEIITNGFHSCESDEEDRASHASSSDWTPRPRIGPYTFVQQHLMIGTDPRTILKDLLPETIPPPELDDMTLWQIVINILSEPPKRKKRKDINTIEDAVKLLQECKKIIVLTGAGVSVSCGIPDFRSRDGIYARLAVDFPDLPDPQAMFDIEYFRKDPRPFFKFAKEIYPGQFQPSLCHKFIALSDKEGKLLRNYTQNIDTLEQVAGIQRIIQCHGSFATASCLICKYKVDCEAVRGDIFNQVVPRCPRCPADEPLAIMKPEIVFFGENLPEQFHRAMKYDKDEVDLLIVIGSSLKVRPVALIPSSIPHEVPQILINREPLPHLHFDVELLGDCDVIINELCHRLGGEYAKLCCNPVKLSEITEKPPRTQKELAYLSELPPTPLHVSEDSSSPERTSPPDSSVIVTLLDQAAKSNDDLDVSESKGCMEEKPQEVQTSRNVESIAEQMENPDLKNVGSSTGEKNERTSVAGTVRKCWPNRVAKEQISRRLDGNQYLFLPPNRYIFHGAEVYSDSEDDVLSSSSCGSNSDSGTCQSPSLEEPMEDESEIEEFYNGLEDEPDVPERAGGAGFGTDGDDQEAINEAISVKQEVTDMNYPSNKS
The experiment in a line: Sirt1 deacetylation activity assay kit. The conditions noted are these: time course, FIG. 3.

Series [4] has as its system PLC/PRF/5 cells. The experiment in a line: Colony formation assay in PLC/PRF/5 cells. It is filed as cell-based. The note with it: 30 μM, one week.
The subject of series [5] is retinal precursor cells (R28). The experiment in a line: MTT cell viability assay in R28 cells. Type of series: cell-based. The note with it: 24 hours. As for the experimental part:
FIGS. 5A-5C: FIGS. 5A-5C display the deacetylation effect and cytotoxicity of selected compounds. […] Nucleosomes extracted from HEK293T cells were incubated with 100 μM of selected compounds or Vehicle at 30° C. for 60 minutes. Acetylated H3K9 and total H3 were detected by Western blot. The level of acetylated H3K9 was quantified by Image Lab software. FIGS. 5B and 5C show the cell viability which was assessed by MTT assay. R28 cells were treated with 30 μM or 100 μM compounds for 24 hours. Data were presented as mean±SEM. The experiment was repeated at least three times. ***p<0.001; ****p<0.0001.
R28 cells were seeded in 96 well plates at a density of 1×10^4/well overnight, then treated with compounds for 24 h. MTT (MilliporeSigma) was added to cells (20 μL/well) and incubated for 3.5 h. After medium was removed, 100 μL dimethyl sulfoxide (DMSO) was added into each well. Absorbance was measured at 540 nm using a microplate reader.
A general note: Formazan colour is commonly taken as a measure of viable cells.

The target in series [6] is T1, Sirt6. The experiment in a line: Nucleosome test: Sirt6-dependent H3K9 deacetylation of nucleosomes from HEK293T cells, Western blot. Type of series: biochemical. The conditions noted are these: 100 μM, 30° C., 60 minutes. As for the experimental part:
. Nucleosomes extracted from HEK293T cells were incubated with 100 μM of selected compounds or Vehicle at 30° C. for 60 minutes. Acetylated H3K9 and total H3 were detected by Western blot. The level of acetylated H3K9 was quantified by Image Lab software. FIGS. 5B and 5C show the cell viability which was assessed by MTT assay. R28 cells were treated with 30 μM or 100 μM compounds for 24 hours. Data were presented as mean±SEM. The experiment was repeated at least three times. ***p<0.001; ****p<0.0001.
Next, effects of selected compounds were explored for Sirt6-dependent deacetylation of complete nucleosomes extracted from human embryonic kidney (HEK) 293T cells, as nucleosomes represent more physiologically relevant substrates. […]. Briefly, HEK 293T cells in 100 mm dish were lysed with lysis buffer supplemented with PIC and PMSF for 30 min. After centrifugation for 10 min at 5000 rpm at 4° C., supernatant was removed and nuclei pellet was resuspended with digestion buffer supplemented with PIC and PMSF for 5 min at 37° C. Working enzymatic sharing cocktail was added to digest the chromatin, and EDTA was added after incubation to stop the digestion. Digested nucleosome was obtained in the supernatant after centrifugation for 10 min at 15000 rpm at 4° C. and the concentration was quantified by measuring the absorbance at […]. 20 μg nucleosome was incubated in solution (1× buffer, 0.5 μL recombinant Sirt6 and […] NAD, from SIRT6 ACTIVITY ASSAY KIT) for 60 min. To test the effects of the compounds on Sirt6 activity, corresponding compound or DMSO control was added before incubation. The reaction mixture was analyzed by Western blot.
Proteins were extracted from cells with PIERCE RIPA BUFFER (89901, ThermoFisher Scientific), and protein concentration was determined using PIERCE BCA PROTEIN ASSAY KIT (23225, ThermoFisher Scientific). Equal amounts of protein were loaded and separated by SDS-PAGE gel. Next, separated proteins were transferred onto Nitrocellulose Blotting Membranes (A29457237, GE Healthcare Life science), and then the membranes were blocked by 5% non-fat dry milk. After incubation with corresponding primary antibodies against H3K9ac, H3 and Sirt6 at a 1:1000 dilution, or α-tubulin at a 1:5000 dilution, goat anti-mouse or goat anti-rabbit secondary antibodies at a 1:5000 dilution were applied. Finally, membranes were incubated with enhanced chemiluminescent and protein bands were detected by CHEMIDOC imaging system (Bio-Rad). Image-Lab software was used to analyze the intensities of the protein bands.

In series [7] the test system is H1299 cells. The experiment in a line: Acetylated H3K9 / total H3 in H1299 cells, Western blot. Type of series: cell-based. The note with it: 30 μM, 24 hours.
For a further series, the system named is A549-hACE2 cells. The series is described as follows: Cell viability assay in A549-hACE2 cells. The note with it: 50 μM, 48 h.
For series [8], the system named is human hepatocellular carcinoma (HCC) cells. The conditions noted are these: literature, cited from earlier work.
The test system of a further series is HCC tumor. The conditions noted are these: mouse xenograft models; literature; cited from earlier work.
The conditions of series [9]: in mice; literature; cited from earlier work.
Series [10] concerns colorectal cancer (CRC) cell lines. The conditions noted are these: various CRC cell lines; literature; cited from earlier work.
The subject of a further series is CRC tumor. The conditions noted are these: cell line- and patient-derived xenografts, APCmin/+ spontaneous CRC model; literature; cited from earlier work.
In another series the test system is Sirt1, 2, and 3. The note with it: literature; cited from earlier work.
For series [11], the target named is T1, Sirt6. The note with it: literature value; cited from earlier work.
[12] abbreviates: BV2 cells, 100 ng/mL LPS 6 hours, mRNA.

T1 sequence (Q8N6T7 whole entry): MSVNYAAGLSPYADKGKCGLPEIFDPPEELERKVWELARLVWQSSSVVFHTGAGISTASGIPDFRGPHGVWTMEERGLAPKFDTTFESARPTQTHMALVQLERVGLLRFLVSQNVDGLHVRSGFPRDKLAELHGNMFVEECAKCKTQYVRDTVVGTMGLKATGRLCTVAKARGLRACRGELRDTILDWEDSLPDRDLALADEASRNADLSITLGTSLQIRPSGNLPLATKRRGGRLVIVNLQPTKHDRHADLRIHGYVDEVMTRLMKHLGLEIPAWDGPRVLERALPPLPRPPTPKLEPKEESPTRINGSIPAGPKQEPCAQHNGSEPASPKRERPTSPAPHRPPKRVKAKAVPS

For `OCCN1CCN(c2ncccc2C2Nc3ccccc3-n3cccc32)CC1` (centres unmarked) [Compound 35, 2-(4-(3-(4,5-Dihydropyrrolo[1,2-a]quinoxalin-4-yl)pyridin-2-yl)piperazin-1-yl)ethan-1-ol], the “potency in inhibiting SARS-CoV-2 infection (in words)” value in the series on SARS-CoV-2 is on record as “micromolar potency”. Also, the colony formation result in the series with H1299 cells [1] and in the series with PLC/PRF/5 cells [4] was “only a slight inhibitory effect” in each case. Also, the “Sirt6 deacetylation of H3K9 (acetylated H3K9 to total H3)” value with PLC/PRF/5 cells [2] and with H1299 cells [7] was “no obvious influence” throughout. For the same compound, the “LPS-induced expression of IL-1β, IL-6, MCP-1, and TNFα” value (shortened to “LPS-induced expression of IL-1β”) with BV2 cells (setting [12]) was “strongly inhibited”. The ICAM-1 induction result in the series with BV2 cells (BV2 cells, 30 μM, 100 ng/mL LPS 6 hours, mRNA) is reported as “slight inhibition”. Further, the “LPS-induced proinflammatory cytokine/chemokine production” value with BV2 cells is “strongly repressed”. For the same compound, the “Activation Fold 30 μM” value at Sirt6 [3] is 2.92 ± 0.06 fold. Further, the “Activation Fold 100 μM” value at Sirt6 [3] was 5.72 ± 0.69 fold. For the same compound, at Sirt1, the “effect on Sirt1 deacetylation” value was “no significant effects”. Besides, the “toxicity on retinal precursor cells (R28)” value in series [5] (30 μM) and in series [5] (100 μM) was “no obvious toxicity” throughout. In addition, the “acetylation of H3K9 in the nucleosome test” value on Sirt6 [6] is listed as “significantly decreased the acetylation of H3K9”. Also, the “cytotoxicity at the highest tested concentration” value in the series on A549-hACE2 cells is “none of these compounds exhibited significant cytotoxicity”.

Consider `COCCN1CCN(c2ncccc2C2Nc3ccccc3-n3cccc32)CC1` (centres unmarked) [Compound 36, 4-(2-(4-(2-Methoxyethyl)piperazin-1-yl)pyridin-3-yl)-4,5-dihydropyrrolo[1,2-a]quinoxaline], for which the “potency in inhibiting SARS-CoV-2 infection (in words)” value with SARS-CoV-2 is reported as “micromolar potency”. For the same compound, the colony formation result in the series on H1299 cells [1] and in the series with PLC/PRF/5 cells [4] was “significantly inhibited; also recorded: about half” each time. Further, the “Sirt6 deacetylation of H3K9 (acetylated H3K9 to total H3)” value with PLC/PRF/5 cells [2] and in the series with H1299 cells [7] was “significantly activated Sirt6 to deacetylate H3K9” each time. Moreover, the “decrease of acetylated H3K9 when Sirt6 was knockdown by siRNA” value in the series on PLC/PRF/5 cells [2] (Sirt6 siRNA) and in the series with H1299 cells [7] (Sirt6 siRNA) was “abolished” each time. The “LPS-induced expression of IL-1β” value in the series on BV2 cells (setting [12]) was “strongly inhibited”. Also, the “LPS-induced proinflammatory cytokine/chemokine production” value in the series with BV2 cells was “strongly repressed”. Besides, the “Activation Fold 30 μM” value at Sirt6 [3] came out at 3.17 ± 0.21 fold. Also, on Sirt6 [3], the “Activation Fold 100 μM” value is on record as 6.06 ± 0.13 fold. For the same compound, the “effect on Sirt1 deacetylation” value at Sirt1 is on record as “no significant effects”. Moreover, the “toxicity on retinal precursor cells (R28)” value in series [5] (30 μM) and in series [5] (100 μM) was “no obvious toxicity” throughout. The “acetylation of H3K9 in the nucleosome test” value at Sirt6 [6] is recorded as “significantly decreased the acetylation of H3K9”. Moreover, the “cytotoxicity at the highest tested concentration” value in the series on A549-hACE2 cells is “none of these compounds exhibited significant cytotoxicity”.

For the compound `COC(=O)c1cc(NS(=O)(=O)c2cc(Cl)cc(Cl)c2)ccc1S(=O)(=O)Nc1cc(Br)c(F)cc1C` [MDL-800], in series [8] (human HCC cells, dose-dependently), the “H3K9 and H3K56 deacetylation” value is listed as “significantly promoted”. For the same compound, the “proliferation of HCC cells” value in series [8] is given as “inhibited their proliferation”. Further, the HCC tumor growth entry with HCC tumor was “suppressed HCC tumor growth”.

`Cc1cc(F)c(Br)cc1NS(=O)(=O)c1ccc(NS(=O)(=O)c2cc(Cl)cc(Cl)c2)cc1CN1CCOC[C@H]1C` [MDL-811]: in series [9], the “bioavailability (F)” value was 92.96%. In addition, the antiproliferative effects result in series [10] is “broad antiproliferative effects”. For the same compound, the anti-tumor efficacy result in the series with CRC tumor is listed as “in vivo anti-tumor efficacy”.

For the compound `c1cncc(C2Nc3ccccc3-n3cccc32)c1` (centres unmarked) [UBCS039, reference compound], in the series on SARS-CoV-2, the “potency in inhibiting SARS-CoV-2 infection (in words)” value was “micromolar potency”. Moreover, the “LPS-induced expression of IL-1β” value in the series with BV2 cells (setting [12]) is on record as “strongly inhibited”. Also, the “effects on basal Sirt1, 2, and 3 deacetylation activities” value with Sirt1, 2, and 3 is “no obvious effects”. The “maximum activation (Emax) of Sirt6 deacetylation” value at Sirt6 [11] was approximately 2 fold.
